# No end group written: not given here.
# What was measured:
# [1] = test system: CD25+ CD4+ T cells; assay: two-color flow cytometry for CD4 and CD25 on activated primed T cells; format: cell-based, mouse; settings: TCR-stimulated in the presence or absence of α-MSH 30 pg/ml, 24 hours
# Description: In another example, for immunostaining and fluorescence-activated cell sorting, T cells (2×10^6 cells) from 24 hour cultures of the α-MSH-treated activated T cells were centrifuged and washed once in PBS/BSA buffer (10 mM PBS, 3% BSA). The cells were resuspended in 50 μl of PBS/BSA buffer containing 2 μg of PE-conjugated anti-CD4 and FITC-conjugated anti-CD25 antibodies and incubated for 30 minutes room temperature. The cells were centrifuged, resuspended in 1 ml of PBS/BSA buffer, and washed two times. The stained cells were sorted by a Coulter ELITE cell sorter calibrated for two color fluorescence. The cells were sorted into two populations, CD25^+ CD4^+ cells and the remaining cells (all CD4^− cells plus CD25^−CD4^+ cells). The sorted cells were used immediately in the in vitro regulatory T cell assay.
# α-MSH induced CD25^+ CD4^+ regulatory T cells. To characterize the regulatory T cells induced by α-MSH, we assayed through flow cytometry the possibility that α-MSH induces CD25^+ (IL-2Rα) CD4^+ regulatory T cells. […] The cells were analyzed by two-color flow cytometry after staining with anti-CD4 and anti-CD25. Presented is a representative dot plot of the flow cytometry seen in four separate staining experiments. (B) Only T cells activated in the presence of α-MSH, were stained and sorted based on the coexpression of CD4 and CD25. […]
# [2] = test system: primed Th1 cells; assay: in vitro regulatory T cell activity assay (IFN-γ of freshly activated primed Th1 cells in coculture); format: cell-based, mouse (BALB/c)
# Description: Assay For In Vitro Regulatory T Cell Activity. The α-MSH-treated TCR-stimulated T cells, as described above, were cultured for 48 hours. The plate was spun down at 250×g for 10 minutes and supernatant discarded. Freshly isolated, enriched in vivo primed Th1 cells (4×10^6 cells/ml) mixed with 2C11 (1 μg/ml) were added (200 μl) to the wells of the α-MSH pre-treated, TCR-stimulated T cells and incubated for 48 hours. The culture supernatant was assayed for IFN-γ by sandwich ELISA. For long term cultures, primed T cells were TCR-stimulated in the presence of α-MSH for 48 hours. The plate was centrifuged and supernatant was exchanged for 200 μl of 2C11 (1 μg/ml) in fresh media, no x-MSH. The cultures were incubated for 72 hours and the conditioned media was again exchanged for fresh media and 2C11 antibody. The cultures were incubated for an additional 48 hours, centrifuged, supernatant discarded, and added were fresh in vivo primed Th1 cells and 2C11 antibody. Soluble TGF-β receptor II (sTGF-βRII, R&D Systems) was added to some of the cultures. These cultures were incubated for 48 hours and the culture supernatant was assayed for IFN-γ by sandwich ELISA.
# Primed T cells (4×10^5 cells) were enriched and activated with anti-CD3 in the presence (α-MSH+anti-CD3) or absence (+anti-CD3) of α-MSH (30 pg/ml). After 48 hours of incubation the cells were mixed with freshly enriched primed Th1 cells (4×10^5 cells) and anti-CD3 antibody and cultured for 48 hours. The culture supernatant was assayed for IFN-γ by sandwich ELISA. Results are presented as IFN-γ pg/ml±SEM of eight independent experiments.
# In addition, T cells initial TCR-stimulated in the presence of α-MSH and subsequently restimulated twice (Day 2 and Day 5) with anti-TCR antibody in the absence of α-MSH, still suppressed IFN-γ production by freshly activated primed Th1 cells (FIG. 6). […] Primed T cells (4×10^5 cells) were enriched and activated with anti-CD3 antibody in the presence of 30 pg/ml α-MSH (α-MSH+anti-CD3) or absence of α-MSH (+anti-CD3). After 48 hours of incubation the cells were centrifuged and resuspended in fresh media with anti-CD3 antibodies and incubated for 72 hours (day 5). The cells were again washed and re-stimulated with anti-CD3 and incubated for an additional 48 hours (day 7). After the final incubation the treated T cells (4×10^5 cells) were mixed with freshly enriched primed Th1 cells (4×10^5 cells) and anti-CD3 antibody and cultured for 48 hours. The culture supernatant was assayed for IFN-γ by sandwich ELISA. Results are presented as IFN-γ pg/ml±SEM of eight independent experiments. […] Therefore, α-MSH mediates induction of functionally active, regulatory Th3 cells.
# TGF-β and α-MSH induce regulatory T cell activity. Primed T cells were TCR-stimulated in the presence or absence of 30 pg/ml α-MSH with TGF-β1 or TGF-β2 (5.0 ng/ml) added 4 hours after TCR-stimulation. The treated T cells (Regulatory T cells) were added to cultures of freshly activated primed T cells. Culture supernatants were assayed for IFN-γ 48 hours after addition of treated T cells. Data are presented as percent suppression±SEM of IFN-γ produced by freshly activated T cells with no added regulatory cells, from eight independent experiments.
# [3] = test system: experimental autoimmune uveitis; assay: EAU, α-MSH injected i.v. at the time of peak retinal inflammation; format: in vivo, mouse
substance,measurement,setting,value
"α-melanocyte stimulating hormone (SYSMEHFRWGKPV; not fully specified; ends and bridges not checked; UniProt P01189 138-150, looked up) [α-MSH, synthetic α-MSH (Peninsula Laboratories); thirteen-amino acid neuropeptide derived from POMC]",percentage of CD25+ CD4+ cells,[1],did not change
same,"IFN-γ in cocultures with T cells initially activated in the presence of α-MSH, long term","[2]; α-MSH 30 pg/ml only at first stimulation, restimulated Day 2 and Day 5 without α-MSH, then coculture 48 h",significantly (p=0.05) suppressed
same,"induction of regulatory T cell activity (suppression of IFN-γ of other Th1 cells), factor individually",[2]; α-MSH 30 pg/ml or TGF-β 5.0 ng/ml,induced regulatory T cell activity
same,severity of experimental autoimmune uveitis (EAU),[3],significantly suppressed

# Source: patent US20060127400A1, “Activation of regulatory T cells by alpha-melanocyte stimulating hormone” (THE SCHEPENS EYE RESEARCH INSTITUTE, INC., priority 1999, published 2006)
